This is an account of results in patent US20090221010A1, “Methods for Prediction and Prognosis of Cancer, and Monitoring Cancer Therapy” (priority 2005, published 2009).

This assay deals with non-small cell lung cancer. In words: Tumor shrinkage measured radiologically in non-small cell lung cancer patients treated with Sorafenib. In kind it is in vivo, human. Conditions: non-small cell lung carcinoma; for mean % change in tumor size: measured radiologically.

As to `CNC(=O)c1cc(Oc2ccc(NC(=O)Nc3ccc(Cl)c(C(F)(F)F)c3)cc2)ccn1` [Sorafenib], the average tumor shrinkage (patients who showed stable disease, Sorafenib treatment) amounted to 5.1%. The average tumor growth (patients whose disease progressed, Sorafenib treatment) is 20.6%. The “mean % change in tumor size” value runs as follows: (patients with Progressive Disease in spite of Sorafenib treatment) 20.6%; (patients with Stable Disease on Sorafenib treatment) −5.1%.
